{
  "source": "patent US8772243B2",
  "about": "“Methods for predicting the response to anti-cancer treatment with an agonist of TLR7 or an agonist of TLR8” (Inserm (Institut National de la Sante et de la Recherche …, priority 2008, dated 2014)",
  "key": {"[1]": {"tested_on": "Bcl-2 expression in A549 cells", "assay": "Bcl-2 expression, Taq Man Low Density Array, A549", "type": "cell-based, human", "conditions": "6 h, RT-PCR", "protocol": "FIG. 4 TLR7 and 8 induce survival of lung tumor cells. (A) A549 cells were unstimulated, stimulated with loxoribine (10 μg/ml), Poly U (10 μg/ml), or Gardiquimod(10μg/ml) and incubated with Alamar blue for 10 days. Reduction of Alamar blue was then determined by spectrophotometry at 570 and 600 nm. The percentage of reduced Alamar blue was calculated as described by the manufacturer. A549 cells were unstimulated or stimulated with loxoribine, Poly U, Gardiquimod, etoposide, or cycloheximide for 24 h. (B) The percentage of dead cells was determined by Trypan blue exclusion. (C) The DNA content was measured by IP staining after RNAse A treatment. The percentages indicate the proportion of subdiploid (G0/G1) and […]. Data represent mean values±SD from 3 independent experiments (*p<0.05; ** p<0.01, Student test). (D) A549 cells were cultured for 6 h in the presence of loxoribine, Poly U, or Gardiquimod, and the expression of Bcl-2 was assayed using Taq Man Low Density Array technology. The ΔCT values for Bcl-2 expression were calculated by subtraction of the CT value obtained for the 18S housekeeping gene. The ΔΔCT values were obtained by subtraction of ΔCT values for unstimulated cells from those obtained for stimulated cells. […]\nTotal RNA was extracted from A549 or SK-MES cells stimulated with loxoribine, Poly U, or Gardiquimod for 6 h or from purified human lung cancer cells using the RNeasy isolation-kit RNA (Qiagen, Courtaboeuf, France). The integrity and the quantity of the RNA were evaluated with a bioanalyzer-2100 (Agilent Technologies). All samples were assessed for gene expression analysis using the Taq Man Low-Density Array angiogenesis and immune panel (Applied Biosystem). […] Quantitative real-time TaqMan-PCR was performed using Low-Density-Arrays and the 7900 robotic real-time PCR-system (Applied-Biosystems). […] Data were analyzed using the SDS Software v2.2 (Applied-Biosystems). The ΔCT values were calculated for each gene by subtraction of the CT value of the 18S housekeeping gene from the CT of the gene of interest. […]"}, "[2]": {"tested_on": "Bcl-2 expression in SCC SK-MES cells", "assay": "Bcl-2 expression, SK-MES", "type": "cell-based, human", "conditions": "data not shown", "protocol": "(§1) Total RNA was extracted from A549 or SK-MES cells stimulated with loxoribine, Poly U, or Gardiquimod for 6 h or from purified human lung cancer cells using the RNeasy isolation-kit RNA (Qiagen, Courtaboeuf, France). The integrity and the quantity of the RNA were evaluated with a bioanalyzer-2100 (Agilent Technologies). All samples were assessed for gene expression analysis using the Taq Man Low-Density Array angiogenesis and immune panel (Applied Biosystem). The RT-PCR experiments were carried-out according to the manufacturer's instructions (Applied-Biosystems). Quantitative real-time TaqMan-PCR was performed using Low-Density-Arrays and the 7900 robotic real-time PCR-system (Applied-Biosystems). The 18S primers and probes were used as internal controls. Data were analyzed using the SDS Software v2.2 (Applied-Biosystems). The ΔCT values were calculated for each gene by subtraction of the CT value of the 18S housekeeping gene from the CT of the gene of interest. The ΔΔCT values were obtained by subtraction of the ΔCT values for unstimulated cells from the […]. The fold increase (arbitrary unit) was obtained by 2^−ΔΔCT."}, "[3]": {"tested_on": "A549 cells", "assay": "Cell cycle analysis (propidium iodide staining)", "type": "cell-based, human", "conditions": "PI staining", "protocol": "(§2) FIG. 4 TLR7 and 8 induce survival of lung tumor cells. (A) A549 cells were unstimulated, stimulated with loxoribine (10 μg/ml), Poly U (10 μg/ml), or Gardiquimod(10μg/ml) and incubated with Alamar blue for 10 days. Reduction of Alamar blue was then determined by spectrophotometry at 570 and 600 nm. The percentage of reduced Alamar blue was calculated as described by the manufacturer. A549 cells were unstimulated or stimulated with loxoribine, Poly U, Gardiquimod, etoposide, or cycloheximide for 24 h. (B) The percentage of dead cells was determined by Trypan blue exclusion. (C) The DNA content was measured by IP staining after RNAse A treatment. The percentages indicate the proportion of subdiploid (G0/G1) and […]. Data represent mean values±SD from 3 independent experiments (*p<0.05; ** p<0.01, Student test). (D) A549 cells were cultured for 6 h in the presence of loxoribine, Poly U, or Gardiquimod, and the expression of Bcl-2 was assayed using Taq Man Low Density Array technology. The ΔCT values for Bcl-2 expression were calculated by subtraction of the CT value obtained for the 18S housekeeping gene. The ΔΔCT values were obtained by subtraction of ΔCT values for unstimulated cells from those obtained for stimulated cells. The fold increase (arbitrary unit) was obtained by 2^−ΔΔCT.\nA549 cells were cultured in the presence of loxoribine, Poly U, Gardiquimod, etoposide, or cycloheximide. After 48 h, the cells were harvested, washed in cold PBS, and fixed with 2 ml of 70% cold ethanol in PBS for 2 h at 4° C. After centrifugation, the supernatant was removed and the pellet was rinsed with 0.5% PBS Tween. It was then incubated with […] of RNAse A and 50 μg of propidium iodide in PBS. Propidium iodide staining was determined with a FACScalibur cytometer."}, "[4]": {"tested_on": "A549 cells", "assay": "Tumor cell proliferation assay (Alamar blue reduction)", "type": "cell-based, human", "conditions": "10 μg/ml, ten days", "protocol": "as §2\nHuman lung cancer cell lines were seeded in 96-well plates (800 cells per well) and left unstimulated or were stimulated with loxoribine, Poly U, or Gardiquimod. The proliferation assay was performed with Alamar blue (AbD Serotec, Cergy Pontoise, France) according to the manufacturer's instructions. Briefly, cells were seeded and stimulated with TLR ligands in 100 μl of medium, and 10 μl of Alamar Blue was added. The optical density in each well was determined at 540 nm and 570 nm after 10 days of culture, and the percentage of reduced Alamar blue was determined. The percentage of reduced Alamar blue in unstimulated cells was determined as 100%, and the percentages of the stimulated cells were determined relative to this value."}, "[5]": {"tested_on": "A549 and SK-MES cells", "assay": "Transcriptomic analysis of 182 genes (Taq Man Low Density Array)", "type": "cell-based, human", "conditions": "6 h stimulation; versus unstimulated cells", "protocol": "FIG. 6 TLR7 and 8 induce regulation of gene transcription. A549 or SK-MES cells were cultured for 6 h in the presence of loxoribine, Poly U, or Gardiquimod. Total RNA was extracted and analyzed for the expression of 182 genes using Taq Man Low Density Array technology. All genes with a value greater than 35 (CT) were excluded from the analysis. The ΔCT values for the expression of all genes were calculated by subtraction of the CT value of the 18S housekeeping gene. The ΔΔCT values were obtained by subtraction of the ΔCT values for unstimulated cells from those obtained for TLR7- or 8-stimulated cells. The fold increase (arbitrary unit) was obtained by 2^−ΔΔCT. Values were then clustered using the Genesis Software.\nas §1"}, "[6]": {"tested_on": "1549, H1355 and SK-MES cells", "assay": "Chemoresistance by colony formation assay", "type": "cell-based, human", "conditions": "concentration added on day 12 of colony formation assay", "protocol": "Alternatively, chemoresistance was assessed by the colony formation assay. In this assay, 1549, H1355 and SK-MES cells were seeded in 6-well plates (500 cells per well) and incubated for 15 days at 37° under 5% CO2. The cells were left unstimulated or stimulated 100 μM Loxoribine or with 10 μg/ml single-stranded polyU RNA (InvivoGen) on days 0, 3, 6 and 9. On day 12, different anti-cancer agents were added at the respective LD50 (cisplatin and carboplatin 100 μM, navelbine 50 μM, doxorubicine 2 nM). On day 15, the wells ware washed with PBS, and stained with 6% (vol/vol) glutaraldehyde, 0.5% (wt/vol) crystal violet in water for 30 minutes. The cells were washed and the colonies of more than 50 cells counted. Cell survival was calculated as follows: number of colonies after chemotherapy/number of cells seeded on day 0×plating efficiency, where the plating efficiency is number of colonies/number of cells seeded."}, "[7]": {"tested_on": "A549 and SK-MES cells", "assay": "Chemoresistance assay (Trypan blue and Alamar blue)", "type": "cell-based, human", "conditions": "Alamar blue reduction", "protocol": "FIG. 5 TLR7 and 8 induce chemoresistance of lung tumor cells. A549 (A-C) or SK-MES cells (D-F) were cultured with or without loxoribine or Poly U for 48 h, and then left untreated or were treated with cycloheximide, cisplatine, carboplatine, doxorubicine, or Navelbine. After 36 h, the percentage of dead cells was determined by Trypan blue exclusion (A, D) and cell viability was analyzed by the reduction of Alamar blue (B, C, E and F). Data represent mean values±SD from 3 independent experiments (*p<0.05; **p<0.01, ***p<0.001, Student test).\nA549 and SK-MES cells were seeded in 96-well plates (1000 cells per well) and left unstimulated or were stimulated with loxoribine, Poly U, or Gardiquimod for 48 h. Cisplatine, carboplatine, doxorubicine, Navelbine, or cycloheximide was then added for an additional 36 h. The optical density in each well was determined 24 h after the addition of Alamar blue at 540 nm and 570 nm. Alternatively, viable and dead cells were counted using Trypan blue."}, "[8]": {"tested_on": "A549 cells", "assay": "A549 xenograft in NOD/SCID mice", "type": "in vivo", "conditions": "for factor of reduction of tumor size by chemotherapy: cisplatine 2 mg/kg/injection i.p.", "method": "Mice were anesthetized by intra-peritoneal injection of a solution containing 3.2 mg of ketamine (Virbac) and 0.16 mg of xylasine (Rompum 2%, Bayer Healthcare) in 80 μl of PBS (Gibco). Five days prior to experimentation, A549 cells were pre-stimulated with 100 μM Loxoribine (Invivogen) or left unstimulated. For each condition 5×10^6 cells were diluted in 250 μl PBS and injected subcutaneously to 5 mice per group and were re-stimulated either with 50 μl PBS or with 100 nmol of Loxoribine diluted in 50 μl PBS. Stimulating injections into the tumor site were carried out on the day the cells were injected and then on days 3, 6 and 9. The mice then received either 120 μA PBS, or a chemotherapy of cisplatine (2 mg/kg/injection diluted in 120 μl PBS) on days 18, 20 and 22, both intra-peritoneal. The volume of the tumor was determined by measuring the length (Lg), the width (Wi) of the tumor and by calculating (Lg*(Wi*Wi)/2."}},
  "data": [
    {"smiles": "CCNCc1nc2c(N)nc3ccccc3c2n1CC(C)(C)O", "note": "[Gardiquimod]", "values": [
      {"measurement": "Bcl-2 expression compared to untreated cells", "setting": "[1]", "value": "increased expression of Bcl-2"},
      {"measurement": "increase in Bcl-2 expression", "setting": "[2]", "value": 100, "unit": "fold"},
      {"measurement": "proportion of cells in G0/G1 or G2/M phases versus unstimulated cells", "setting": "[3]", "value": "did not observe any significant differences"},
      {"measurement": "increase in reduction of Alamar blue versus unstimulated cells", "setting": "[4]", "value": 20, "unit": "%"},
      {"measurement": "genes down-regulated in both SK-MES and A549 cells", "setting": "[5]", "value": "Prolactin (PRL), CD80, Fibronectin-1 (FN-1), A Disintegrin And Metalloproteinase with ThromboSpondin motif 1 (ADAMTS1), and Serpin Peptidase Inhibitor Clade C1 (SERPINC1)"},
      {"measurement": "genes up-regulated in A549 cells, but down-regulated in SK-MES cells", "setting": "[5]", "value": "Angiopoietin like 3 (ANGPTL3), Serpin Peptidase Inhibitor Clade F1 (SERPINF1), and Angiopoietin 1 (ANGPT1)"},
      {"measurement": "genes up-regulated in SK-MES, but down-regulated in A549 cells", "setting": "[5]", "value": "ANGPTL1, Platelet Factor 4 (PF4), and fms related tyrosine kinase 4 (FLT4)"},
      {"measurement": "genes up-regulated in both SK-MES and A549 cells", "setting": "[5]", "value": "Bcl-2, CCR4, and Vasohibin-1 (VASH-1)"}
    ]},
    {"smiles": "CCC1=C[C@@H]2CN(C1)Cc1c([nH]c3ccccc13)[C@@](C(=O)OC)(c1cc3c(cc1OC)N(C)[C@H]1[C@@](O)(C(=O)OC)[C@H](OC(C)=O)[C@]4(CC)C=CCN5CC[C@]31[C@@H]54)C2", "note": "[Navelbine]", "values": [
      {"measurement": "LD50", "setting": "[6]", "value": 50, "unit": "µM"}
    ]},
    {"smiles": "[NH2][Pt]1([NH2])[O]C(=O)C2(CCC2)C(=O)[O]1", "note": "[carboplatine]", "values": [
      {"measurement": "LD50", "setting": "[6]", "value": 100, "unit": "µM"},
      {"measurement": "reduction in cell viability by chemotherapy, comparison of drugs", "setting": "[7]", "value": "more potent inducers of cell death"}
    ]},
    {"smiles": "[NH2][Pt]([NH2])([Cl])[Cl]", "note": "[cisplatine]", "values": [
      {"measurement": "LD50", "setting": "[6]", "value": 100, "unit": "µM"},
      {"measurement": "reduction in cell viability by chemotherapy, comparison of drugs", "setting": "[7]", "value": "more potent inducers of cell death"},
      {"measurement": "factor of reduction of tumor size by chemotherapy", "setting": "[8]; Loxoribine-stimulated group", "value": 1.6, "unit": "factor"},
      {"measurement": "factor of reduction of tumor size by chemotherapy", "setting": "[8]; NS group", "value": 3, "unit": "factor"},
      {"measurement": "tumor volume seven weeks after injection of tumor cells", "setting": "[8]; NS group, cisplatine 2 mg/kg/injection i.p. days 18, 20, 22", "value": 0.6, "unit": "cm^3"}
    ]}
  ]
}
